# Reference: patent US20230114241A1, “METHODS OF TREATING EPILEPSY USING THE SAME” (Trevena, Inc., priority 2019, published 2023)
# Molecular target: human sphingosine-1-phosphate receptor 1 (S1P1) (Homo sapiens, UniProt P21453)
# Test: Inhibition of cAMP production (HTRF cAMP HiRange), S1P1 CHO-K1 cells
# Format: cell-based
# Settings: inhibition of cAMP production, S1P1; read-out: hS1P1 CAMP pEC50 (converted)
# Outline: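 Intracellular cAMP changes read by TR-FRET (HTRF HiRange, 1 h room temperature) after 30 min compound exposure at 37 °C. Cells: overnight-plated CHO-K1 stably expressing tagged human S1P1 with EA-β-arrestin2. Responses normalized to fingolimod.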
# Chain of human sphingosine-1-phosphate receptor 1 (S1P1) (P21453 whole entry): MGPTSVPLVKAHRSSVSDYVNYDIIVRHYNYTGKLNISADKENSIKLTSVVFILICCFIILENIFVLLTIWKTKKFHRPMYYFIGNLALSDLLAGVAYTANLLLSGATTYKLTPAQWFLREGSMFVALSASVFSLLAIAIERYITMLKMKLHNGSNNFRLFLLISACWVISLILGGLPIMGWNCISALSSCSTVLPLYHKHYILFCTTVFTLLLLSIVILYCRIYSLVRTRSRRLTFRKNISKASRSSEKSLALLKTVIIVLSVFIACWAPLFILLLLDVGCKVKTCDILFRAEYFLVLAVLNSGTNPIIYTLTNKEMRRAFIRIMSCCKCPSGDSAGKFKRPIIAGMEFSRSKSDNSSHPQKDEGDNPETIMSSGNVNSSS
row,EC50 [nM],SMILES
1,> 316,"COc1cccnc1-c1noc(-c2ccc3c(c2)nnn3C(C)C)n1 [Compound 627, 5-(1-isopropyl-1H-benzo[d][1,2,3]triazol-5-yl)-3-(3-methoxypyridin-2-yl)-1,2,4-oxadiazole]"
2,> 316,"CC(C)Cn1nnc2cc(-c3nc4c(Br)cccc4o3)ccc21 [Compound 461, 4-bromo-2-(1-isobutyl-1H-benzo[d][1,2,3]triazol-5-yl)benzo[d]oxazole]"

# The remaining lines, values behind:
row,SMILES,EC50 [nM]
1,"COc1ccc2nc(-c3ccc4c(c3)nnn4CC(C)C)oc2c1 [Compound 452, 2-(1-isobutyl-1H-benzo[d][1,2,3]triazol-5-yl)-6-methoxy-benzo[d]oxazole]",> 316
2,"Cc1ccc2oc(-c3ccc4c(c3)nnn4CC(C)C)nc2c1 [Compound 437, 2-(1-isobutyl-1H-benzo[d][1,2,3]triazol-5-yl)-5-methyl-benzo[d]oxazole]",< 316
3,"Cc1ccc2oc(-c3ccc4c(c3)nnn4C(C)C)nc2c1 [Compound 419, 2-(1-isopropyl-1H-benzo[d][1,2,3]triazol-5-yl)-5-methyl-benzo[d]oxazole]",< 316
4,"CC(C)n1nnc2cc(-c3nc4c(ccc5sccc54)o3)ccc21 [Compound 457, 4-[1-(propan-2-yl)-1H-1,2,3-benzotriazol-5-yl]-5-oxa-10-thia-3-azatricyclo[7.3.0.0^2,6] dodeca-1(9),2(6),3,7,11-pentaene]",< 316

# Same assay, conditions: inhibition of cAMP production; potency; read-out: hS1P1 CAMP pEC50 (converted)
row,EC50 [nM],SMILES
1,< 316,"CC(C)n1ccc2cc(-c3nc(-c4ccccc4Br)no3)ccc21 [Compound 322, 3-(2-bromophenyl)-5-(1-isopropyl-1H-indol-5-yl)-1,2,4-oxadiazole]"
2,> 316,"Cc1ccccc1C(C)c1noc(-c2ccc3c(c2)nnn3C(C)C)n1 (centres unmarked) [Compound 172, 5-{3-[1-(2-methyl-phenyl)ethyl]-1,2,4-oxadiazol-5-yl}-1-(propan-2-yl)-1H-1,2,3-benzotriazole]"
3,< 316,"CC(C)n1nnc2cc(-c3nc(-c4ccccc4Br)no3)ccc21 [Compound 282, 5-[3-(2-bromophenyl)-1,2,4-oxadiazol-5-yl]-1-(propan-2-yl)-1H-1,2,3-benzotriazole]"
4,< 316,"COc1ccccc1-c1nc(-c2ccc3c(c2)nnn3C2CCCC2)no1 [Compound 120, 3-(1-cyclopentyl-1H-benzo[d][1,2,3]triazol-5-yl)-5-(2-methoxyphenyl)-1,2,4-oxadiazole]"
5,> 316,"Brc1ccccc1-c1nc(-c2ccc3[nH]nnc3c2)no1 [Compound 97, 3-(1H-benzo[d][1,2,3]triazol-5-yl)-5-(2-bromophenyl)-1,2,4-oxadiazole]"
6,< 316,"CCC1(CC)CC(=O)c2cc(-c3nc(-c4ccccc4C)no3)ccc2O1 [Compound 66, 2,2-diethyl-6-(3-(o-tolyl)-1,2,4-oxadiazol-5-yl)chroman-4-one]"
7,> 316,"CC(C)n1nnc2cc(-c3noc(-c4ccccc4C#N)n3)ccc21 [Compound 279, 2-(3-(1-isopropyl-1H-benzo[d][1,2,3]triazol-5-yl)-1,2,4-oxadiazol-5-yl)benzonitrile]"
8,< 316,"Cc1cc(-c2nc(-c3ccc4c(c3)nnn4C(C)C)no2)cc(C)n1 [Compound 156, 5-(2,6-dimethyl-pyridin-4-yl)-3-(1-isopropyl-1H-benzo[d][1,2,3]triazol-5-yl)-1,2,4-oxadiazole]"
9,> 316,"Brc1ccccc1-c1noc(-c2ccc3c(c2)nnn3C2CCOCC2)n1 [Compound 233, 5-[3-(2-bromophenyl)-1,2,4-oxadiazol-5-yl]-1-(oxan-4-yl)-1H-1,2,3-benzotriazole]"
10,< 316,"COc1ccccc1-c1coc(-c2ccc3c(c2)nnn3C(C)C)n1 [Compound 277, 5-[4-(2-methoxy-phenyl)-1,3-oxazol-2-yl]-1-(propan-2-yl)-1H-1,2,3-benzotriazole]"
11,> 316,"Cc1ncccc1-c1nc(-c2ccc3c(c2)nnn3C(C)C)no1 [Compound 194, 3-(1-isopropyl-1H-benzo[d][1,2,3]triazol-5-yl)-5-(2-methyl-pyridin-3-yl)-1,2,4-oxadiazole]"
12,< 316,"Cc1ccccc1-c1noc(-c2ccc3c(c2)nnn3CC(F)F)n1 [Compound 182, 1-(2,2-difluoroethyl)-5-[3-(2-methylphenyl)-1,2,4-oxadiazol-5-yl]-1H-1,2,3-benzotriazole]"
13,> 316,"COc1cccc(OC)c1-c1noc(-c2ccc3c(c2)nnn3C(C)C)n1 [Compound 251, 3-(2,6-dimethoxy-phenyl)-5-(1-isopropyl-benzotriazol-5-yl)-1,2,4-oxadiazole]"
14,> 316,"Cc1ccccc1Cc1noc(-c2ccc3c(c2)nnn3C(C)C)n1 [Compound 202, 5-{3-[(2-methyl-phenyl)methyl]-1,2,4-oxadiazol-5-yl}-1-(propan-2-yl)-1H-1,2,3-benzotriazole]"

# Second part, the compound before the results:
row,SMILES,EC50 [nM]
1,"Cc1cc(C)cc(Cc2noc(-c3ccc4c(c3)nnn4C(C)C)n2)c1 [Compound 126, 5-{3-[(3,5-dimethyl-phenyl)methyl]-1,2,4-oxadiazol-5-yl}-1-(propan-2-yl)-1H-1,2,3-benzotriazole]",> 316
2,"CC(C)n1nnc2cc(-c3noc(C4CCCCC4)n3)ccc21 [Compound 127, 5-(5-cyclohexyl-1,2,4-oxadiazol-3-yl)-1-(propan-2-yl)-1H-1,2,3-benzotriazole]",> 316
3,"CCC1(CC)CC(=O)c2cc(-c3nc(-c4ccnc(C(F)(F)F)c4)no3)ccc2O1 [Compound 314, 2,2-diethyl-6-(3-(2-(trifluoromethyl)pyridin-4-yl)-1,2,4-oxadiazol-5-yl)chroman-4-one]",> 316
4,"C=CCNc1ccc(-c2nc(-c3ccc4c(c3)CCC(=O)N4)no2)cc1C#N [Compound 61, 2-(allylamino)-5-(3-(2-oxo-1,2,3,4-tetrahydroquinolin-6-yl)-1,2,4-oxadiazol-5-yl)benzonitrile]",< 316
5,"CC(C)CCn1nnc2cc(-c3nc(-c4ccc(C(F)(F)F)c(F)c4)no3)ccc21 [Compound 122, 5-{3-[3-fluoro-4-(trifluoromethyl)phenyl]-1,2,4-oxadiazol-5-yl}-1-(3-methyl-butyl)-1H-1,2,3-benzotriazole]",> 316
6,"COc1ccc(-c2noc(-c3ccc4c(c3)nnn4C3CCCC3)n2)cc1C(F)(F)F [Compound 197, 1-cyclopentyl-5-{3-[4-methoxy-3-(trifluoromethyl)phenyl]-1,2,4-oxadiazol-5-yl}-1H-1,2,3-benzotriazole]",> 316
7,"N#Cc1cc(-c2nnc(-c3ccc4[nH]ncc4c3)o2)ccc1NCC(F)F [Compound 354, 2-[(2,2-difluoro-ethyl)amino]-5-[5-(1H-indazol-5-yl)-l,3,4-oxadiazol-2-yl]benzonitrile]",< 316
8,N#Cc1cc(-c2nnc(-c3ccc4[nH]ncc4c3)o2)ccc1NCC1CC1 [Compound 352],< 316
9,"COC(=O)NS(=O)(=O)n1c(=O)oc2cc(-c3nnc(-c4ccccc4OC)o3)ccc21 [Compound 342, methyl N-({6-[5-(2-methoxyphenyl)-1,3,4-oxadiazol-2-yl]-2-oxo-2,3-dihydro-1,3-benzoxazol-3-yl}sulfonyl)carbamate]",> 316
10,"CCC1(CC)CC(=O)c2cc(-c3nsc(-c4cccnc4)n3)ccc2O1 [Compound 137, 2,2-diethyl-6-(5-(pyridin-3-yl)-1,2,4-thiadiazol-3-yl)chroman-4-one]",< 316
11,"Clc1ncccc1-c1noc(-c2ccc3c(c2)nnn3CC2CC2)n1 [Compound 199, 5-[3-(2-chloropyridin-3-yl)-1,2,4-oxadiazol-5-yl]-1-(cyclopropyl-methyl)-1H-1,2,3-benzotriazole]",> 316
12,"CCC1(CC)CC(=O)c2cc(-c3nnc(-c4ccc5c(c4)nnn5C(C)C)o3)ccc2O1 [Compound 223, 2,2-diethyl-6-(5-(1-isopropyl-1H-benzo[d][1,2,3]triazol-5-yl)-1,3,4-oxadiazol-2-yl)chroman-4-one]",> 316
13,"C=CCNc1ccc(-c2nc(-c3ccc4c(c3)nnn4C(C)C)no2)cc1C#N [Compound 150, 2-(allylamino)-5-(3-(1-isopropyl-1H-benzo[d][1,2,3]triazol-5-yl)-1,2,4-oxadiazol-5-yl)benzonitrile]",< 316
14,"C=CCNc1ccc(-c2nc(-c3ccc4[nH]ncc4c3)no2)cc1C#N [Compound 141, 5-(3-(1H-indazol-5-yl)-1,2,4-oxadiazol-5-yl)-2-(allyl-amino)benzonitrile]",< 316
15,"CCC1(CC)CC(=O)c2cc(-c3nc(-c4cncc(O)c4)no3)ccc2O1 [Compound 310, 2,2-diethyl-6-[3-(5-hydroxy-3-pyridyl)-1,2,4-oxadiazol-5-yl]chroman-4-one]",< 316
16,"Fc1ccc(-c2noc(-c3ccc4c(c3)nnn4C3CCCC3)n2)cc1 [Compound 232, 1-cyclopentyl-5-[3-(4-fluorophenyl)-1,2,4-oxadiazol-5 yl]-1H-1,2,3-benzotriazole]",> 316
17,"CCC1(CC)CC(=O)c2cc(-c3nc(-c4ccc(OC)cc4)no3)ccc2O1 [Compound 65, 2,2-diethyl-6-(3-(4-methoxyphenyl)-1,2,4-oxadiazol-5-yl)chroman-4-one]",> 316
18,"CC(C)Nc1ccc(-c2nc(-c3ccc4c(c3)CCC(=O)N4)no2)cc1C#N [Compound 259, 2-(isopropylamino)-5-(3-(2-oxo-1,2,3,4-tetrahydroquinolin-6-yl)-1,2,4-oxadiazol-5-yl)benzonitrile]",< 316
19,"CSc1ccc(-c2nc(-c3ccc4c(c3)nnn4C3CCCC3)no2)cc1 [Compound 237, 3-(1-cyclopentyl-1H-benzo[d][1,2,3]triazol-5-yl)-5-(4-(methyl-thio)phenyl)-1,2,4-oxadiazole]",> 316
20,"CC(C)Oc1ccc(-c2nc(-c3ccc4c(c3)nnn4C3CCCC3)no2)cc1 [Compound 121, 3-(1-cyclopentyl-1H-benzo[d][1,2,3]triazol-5-yl)-5-(4-isopropoxyphenyl)-1,2,4-oxadiazole]",> 316
21,"CCCn1nnc2cc(-c3nc(-c4cccc(C(F)(F)F)c4)no3)ccc21 [Compound 242, 1-propyl-5-{3-[3-(trifluoromethyl)phenyl]-1,2,4-oxadiazol-5-yl}-1H-1,2,3-benzotriazole]",> 316
